In US20040087539A1, “Method of treating conditions related to platelet activity” (priority 2003, published 2004):
Entries after “also recorded” stand apart in the source; their conditions may differ.

Key:
platelets [1] = assay: Platelet aggregation/activation in vitro with sildenafil by itself; type: cell-based, human
[2] = test system: CHO cells expressing human platelet receptors; assay: Cell adhesion to immobilized vWF under flow; type: cell-based, Chinese Hamster; conditions: for stable adhesion of vector-transfected 123 cells to vWF under flow / stable adhesion of PKG-expressing 123 cells (123PKG) to vWF under flow: FIG. 2C, sildenafil 5 μM; for stable adhesion of PKG-expressing 123 cells (123PKG) to vWF under flow: RGDS 4 mM, 8-bromo-cGMP not shown
Description: CHO cells expressing human platelet receptors were resuspended in modified Tyrode's buffer, pH 7.4, containing 1 mg/mi of bovine serum albumin (BSA) (see Ref. 46), and final cell count was 5×10^5/ml. […] Purified human vWF (10 μg/ml in 0.1 M NaHCO3, pH 8.3) was added to glass microcapillary tubes (inner diameter of 1.33 mm and a length of 7.2 cm), and incubated at 4° C. for 20 h. The vWF-coated microcapillary tubes then were incubated with 5% BSA. After washing, the cell suspension was aspirated through the tube by a syringe pump (Harvard Apparatus Inc.) at desired shear rates for 1.2 minutes and washed with modified Tyrode's buffer for additional 10 minutes at the same shear rates to remove transiently adherent cells. The experiments were continuously recorded on videotape using a video cassette recorder (model 9500, Sony). The number of stably adherent cell on immobilized vWF was counted on images obtained at 20 randomly selected positions in the vWF-coated tubes.
In FIGS. 2A and B, vWF-coated capillary tubes were perfused with equivalent numbers (5×10^5/ml) of CHO cells expressing recombinant GPLb-JX alone (1b9), integrin αIIbβ3 alone (2b3a), both GPIb-IX and integrin αIIbβ3 (123) or expressing GPJb-JX, integrin α^IIbβ3 and PKG Ia (123PKG) at a shear rates of 800 s^−1 (A) or 1500 s^−1 (B) for 1.2 minutes, and then perfused with the modified Tyrodes buffer for 10 minutes at the same shear rates to wash out transient adherent cells. The expenments were recorded in real time. Cells stably adherent to vWF-coated capillary tubes at 20 randomly selected locations were counted.
In FIG. 2C, vector-transfected 123 cells (123) or 123PKG cells also was perfused into vWF-coated glass capillary tubes as described in FIG. 2A in the absence or presence (+RGDS) of an integrin inhibitor RGDS peptide (4 mM) and in the absence (Control) or presence of cGMP-enhancing drug, sildenafil (5 μM). […] The experiments were repeated at least three times.

[3] = clinical reports, Refs. 39-42; cited from earlier work
platelets [4] = assay: Low-dose α-thrombin-induced aggregation of washed platelets; type: cell-based, human; conditions: washed platelets; thrombin 0.02 units/ml; FIGS. 5B, 6B
Description: (§1) Fresh blood from healthy volunteers was anticoagulated with 1/7 volume of ACD (2.5% trisodium citrate, 2% dextrose and 1.5% citric acid). Platelets were washed with CGS buffer (sodium chloride 0.12 M, trisodium citrate 0.0129 M and d-glucose 0.03 M, pH 6.5), resuspended in modified Tyrode's solution and allowed to incubate at 22° C. for 1 hours as previously described. In experiments using platelet-rich plasma (PRP), 1/10 volume of 3.8% trisodium citrate was used as anticoagulant. Platelet aggregation was measured using a turbidometric platelet aggregometer (Chrono-Log) at 37° C. vWF-dependent platelet aggregation was induced by addition of ristocetin or botrocetin to PRP. To differentiate CPIb-IX-mediated platelet agglutination from the second wave of integrin-dependent platelet aggregation, final concentrations of ristocetin were adjusted in each experiment to achieve a two-wave curve of aggregation. Washed platelets were used in platelet aggregation induced by a-thrombin (Enzyme Research Laboratories). To examine the effects of PKG, 100 μM of membrane permeable cGMP analogs, 8-bromo-cGMP or 8-dibutyl-cGMP (Calbiochem), or 1 μM sildenafil citrate (Pfizer) and added simultaneously with subthreshold concentrations of agonists. PKG inhibitors KT5823 (2 pM) and Rp-8PCPT-cGMP (0.2 mM) were preincubated with platelets at 37° C. for 5 minutes before addition of agonists.
In FIG. 5A, washed platelets were preincubated with 40 pg/mi anti-GPIba monoclonal antibody SZ2, integrin inhibitor RGDS, or inhibitors of PKG, KT5823 (2 μM) or Rp-8pCPT-cGMP (0.2 mM) (Calbiochem), for 5 min. Platelets also were preincubated with DMSO (vehicle for KT5823), KT5720 or buffer (Control) as controls. α-Thrombin (0.05 units/mi) then was added to induce platelet aggregation. Nonspecific JgG and RGES peptides also were examined as additional controls, but had no effect (not shown). In FIG. 5B, a subthreshold dose of thrombin was added to platelets immediately followed by addition of PKG activator 8-bromo-cGMP or buffer (Control). Shown in the figure are the representative results of at least three experiments.
(§2) In FIG. 6A, increasing concentrations of sildenafil or control 0.15 M NaCl solution were added to platelet-rich plasma followed by a subthreshold concentration of ristocetin. Platelet aggregation was recorded using a platelet aggregometer. In FIG. 6B, sildenafil or control buffer was added to washed platelets followed by addition of subthreshold doses of thrombin to induce platelet aggregation. It was noted that platelet aggregation occurs in the presence of sildenafil. The figure includes the representative results of at least three experiments.
(§3) In FIG. 7A, PRP was preincubated with 0.1 mM 8-bromo-cGMP for increasing lengths of time at 37° C. as indicated. The vWF modulator, ristocetin (1.25 mg/ml), then was added to induce platelet aggregation in a turbidometric platelet aggregometer. In FIG. 7B, PRP was preincubated with a high concentration of 8-bromo-cGMP (1 mM) for 5 minutes. Ristocetin then was added to induce platelet aggregation. In FIGS. 7C and 7D, washed platelets in modified Tyrode's solution were preincubated with 1 mM 8-bromo-cGMP (C), or various concentrations of 8-pCPT-cGMP (D) at 37° C. for 5 minutes. Thrombin (0.05 u/ml) then was added to induce platelet aggregation.

platelets [5] = conditions: agonists ADP, collagen, A23 187, U46619, platelet activating factor; Ref. 38; cited from earlier work
platelets [6] = assay: Ristocetin-induced vWF-dependent platelet aggregation in platelet-rich plasma; type: cell-based, human; conditions: PRP; agent added with subthreshold ristocetin (1 mg/mm [sic]) (or botrocetin); FIGS. 3B, 6A
Description: as §1
In FIG. 3A, platelet rich-plasma (PRP) was preincubated at 37° C. for 5 mm with PKG inhibitors KT5823 (2 pM) or Rp-8pCPT-cGMP (0.2 μM). PRP was also incubated with DMSO (vehicle for KT5823), a PKA inhibitor, KT5720 (2 pM), or buffer (Control). The vWF modulator, ristocetin, was then added to induce vWF-GPIb-IX interaction. […] In FIG. 3B, a subthreshold concentration of ristocetin was added to PRP immediately followed by addition of 8-bromo-cGMP or buffer (Control). PRP also was preincubated with integrin inhibitor RGDS before adding ristocetin and 8-bromo-cGMP. In FIG. 3C, platelets were preincubated with or without PKG inhibitor KT5823, then allowed to spread on vWF-coated glass chamber slides. Platelets were stained with an anti-GPIb antibody, and fluorescein-labeled secondary antibody. The slides were imaged under a confocal microscope (magnification =630×).
as §2, §3

[7] = identical flow conditions, not shown

For CCCc1nn(C)c2c(=O)[nH]c(-c3cc(S(=O)(=O)N4CCN(C)CC4)ccc3OCC)nc12 [sildenafil], the “platelet aggregation in vitro” value (platelets [1]; sildenafil, not shown) was “did not inhibit”, the “platelet activation by sildenafil by itself” value (platelets [1]; without platelet agonist) was “not sufficient to cause platelet activation” and the “stable adhesion of vector-transfected 123 cells to vWF under flow” value [2] was “enhancing effects”. The “stable adhesion of PKG-expressing 123 cells (123PKG) to vWF under flow” value [2] was “enhanced”, the “stable adhesion of PKG-expressing 123 cells (123PKG) to vWF under flow” value ([2]; listed as Sildenafil) was “significantly increased” and the “stable adhesion of vector-transfected 123 cells to vWF under flow” value ([2]; listed as Sildenafil) was “significantly increased”. For the same compound, the “stable adhesion of 1b9 cells (GPIb-IX alone) under flow” value [2, 7] was “no effect”, the “stable adhesion of 2b3a cells (integrin αIIbβ3 alone) under flow” value [2, 7] was “no effect” and the “thrombotic events (myocardial infarction and cerebral thrombosis) in some patients” value [3] was “associated with severe thrombotic events”. For the same compound, the “platelet aggregation together with a subthreshold concentration of thrombin” value (platelets [4]) was “induces platelet aggregation”, the “platelet activation in vitro, sildenafil alone” value (platelets [5]) was “did not inhibit; also recorded: does not inhibit” and the “platelet aggregation together with a subthreshold concentration of ristocetin” value (platelets [6]) was “induces platelet aggregation”.
